Source: PubChem BioAssay (NCI)
Where “and” joins values, the source holds several entries; their conditions need not be identical. Equal values may be shown once.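 1) Cells in 96-well plates. 2) Compound, 48 h, 5 concentrations. 3) Linear interpolation between surrounding doses. 4) Unreached endpoint = highest concentration. Abbreviation: GI50, concentration required for 50% inhibition of growth. TGI: total growth inhibition.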

Legend:
Assay in all cases: NCI anticancer screen, dose series, 48 h
EKVX NSCLC = system: EKVX NSCLC
NCI/ADR-RES ovarian = system: NCI/ADR-RES ovarian
M14 melanoma = system: M14 melanoma
NCI-H226 lung = system: NCI-H226 lung
PC-3 prostate = system: PC-3 prostate
MDA-MB-435 = system: MDA-MB-435
MDA-MB-231 breast = system: MDA-MB-231 breast
UACC-62 melanoma = system: UACC-62 melanoma
SK-MEL-2 melanoma = system: SK-MEL-2 melanoma
SR leukemia = system: SR leukemia

Work on `NC1=CC(=O)c2c(O)ccc(O)c2C1=O` yielded a TGI (EKVX NSCLC) of 36.2 µM, a TGI (NCI/ADR-RES ovarian) of 68.2 µM and a TGI (M14 melanoma) of 22.3 µM. It also gave a TGI (NCI-H226 lung) of over 100 µM, a TGI (PC-3 prostate) of over 90.6 µM and a TGI (MDA-MB-435) of 31.6 µM. The TGI (MDA-MB-231 breast) was 38.5 µM, the TGI (UACC-62 melanoma) was 26.5 µM and the TGI (SK-MEL-2 melanoma) was 32.6 µM.
In the case of `CN(C)C(=O)C(F)(F)C(c1ccc(F)cc1)C1C(=O)N(C)C(=O)N(C)C1=O` (stereo not drawn), the TGI (EKVX NSCLC) is reported as over 100 µM, the TGI (NCI/ADR-RES ovarian) is reported as over 100 µM and the TGI (M14 melanoma) is reported as over 100 µM. The TGI (NCI-H226 lung) was over 100 µM, the TGI (PC-3 prostate) was over 100 µM and the TGI (MDA-MB-435) was over 100 µM. It also gave a TGI (MDA-MB-231 breast) of over 100 µM, a TGI (UACC-62 melanoma) of over 100 µM and a TGI (SK-MEL-2 melanoma) of over 100 µM.
Compound `Cc1nnc2n(c1=O)CCCN2C` has a TGI (EKVX NSCLC) of over 100 µM, a TGI (M14 melanoma) of over 100 µM and a TGI (NCI-H226 lung) of over 100 µM. It also gave a TGI (PC-3 prostate) of over 100 µM, a TGI (MDA-MB-435) of over 100 µM and a TGI (MDA-MB-231 breast) of over 100 µM. The TGI (SR leukemia) was over 100 µM, the TGI (UACC-62 melanoma) was over 100 µM and the TGI (SK-MEL-2 melanoma) was over 100 µM.
With `Cn1nc(-c2ccc(S(=O)(=O)/N=C(\NN)Nc3ccc(Cl)cc3)s2)cc1C(F)(F)F` the TGI (EKVX NSCLC) was 28.2 µM, the TGI (NCI/ADR-RES ovarian) was 50.7 µM and the TGI (M14 melanoma) was 31.5 µM. For the same compound, the TGI (NCI-H226 lung) was 32.6 µM, the TGI (PC-3 prostate) was 31.2 µM and the TGI (MDA-MB-231 breast) was 32.2 µM. For the same compound, the TGI (SR leukemia) was 41.7 µM, the TGI (UACC-62 melanoma) was 31.1 µM and the TGI (SK-MEL-2 melanoma) was 34.1 µM.
In the case of `Cc1c2ccnc(C(N)=O)c2c(C)c2c1[nH]c1ccccc12`, the GI50 (EKVX NSCLC) is reported as 6.56 µM, the TGI (EKVX NSCLC) is reported as 35.3 µM and 46.8 µM and the TGI (NCI/ADR-RES ovarian) is reported as 34 µM. The TGI (M14 melanoma) was over 100 µM, the GI50 (NCI-H226 lung) was 3.28 µM and the TGI (NCI-H226 lung) was 19.8 µM and 15.7 µM. The TGI (UACC-62 melanoma) was 15.8 µM and 20.4 µM, the GI50 (SK-MEL-2 melanoma) was 9.86 µM and the TGI (SK-MEL-2 melanoma) was 37.5 µM and 44.1 µM.
With `CC(=O)NNc1nc(C)c(C(=O)NNC(=O)C(=O)Nc2ccc([N+](=O)[O-])cc2[N+](=O)[O-])s1` the TGI (EKVX NSCLC) was over 100 µM, the TGI (M14 melanoma) was over 100 µM and the TGI (NCI-H226 lung) was over 100 µM. For the same compound, the TGI (SR leukemia) was over 100 µM, the TGI (UACC-62 melanoma) was over 100 µM and the TGI (SK-MEL-2 melanoma) was over 100 µM.
`COC(=O)c1ccccc1C1CN=NC12Cc1c(ccc(C)c1C)C2=O` (stereo not drawn) was tested, and the TGI (EKVX NSCLC) was over 100 µM, the TGI (NCI/ADR-RES ovarian) was over 100 µM and the TGI (M14 melanoma) was over 100 µM. It also gave a TGI (NCI-H226 lung) of over 100 µM, a TGI (PC-3 prostate) of over 100 µM and a TGI (MDA-MB-435) of over 100 µM. It also gave a TGI (MDA-MB-231 breast) of over 100 µM, a TGI (UACC-62 melanoma) of over 100 µM and a TGI (SK-MEL-2 melanoma) of over 100 µM.
`Nc1ncnc2c1nnn2C1C=CC(CP(=O)(O)O)C1` (stereo not drawn) was tested, and the TGI (EKVX NSCLC) was over 100 µM, the TGI (NCI/ADR-RES ovarian) was over 100 µM and the TGI (M14 melanoma) was over 100 µM. For the same compound, the TGI (NCI-H226 lung) was over 100 µM, the TGI (PC-3 prostate) was over 100 µM and the TGI (MDA-MB-231 breast) was over 100 µM. It also gave a TGI (UACC-62 melanoma) of over 100 µM and a TGI (SK-MEL-2 melanoma) of over 100 µM.
Work on `COc1ccc(C)cc1N1C(=O)C2ON(Cc3ccc(CC(N)=O)cc3)C(c3c4ccccc4c(Cl)c4ccccc34)C2C1=O` (stereo not drawn) yielded a TGI (EKVX NSCLC) of 98 µM, a TGI (NCI/ADR-RES ovarian) of 76.9 µM and a TGI (M14 melanoma) of 38.8 µM. The TGI (PC-3 prostate) was over 100 µM, the TGI (MDA-MB-435) was 62.1 µM and the TGI (MDA-MB-231 breast) was 49 µM. The TGI (SR leukemia) was 48.6 µM, the TGI (UACC-62 melanoma) was 45.2 µM and the TGI (SK-MEL-2 melanoma) was 44.5 µM.
With `CC(C)Oc1cccc(N2C(n3ccnc3)=Nc3ccncc3S2(=O)=O)c1` the TGI (EKVX NSCLC) was 30.4 µM, the TGI (NCI/ADR-RES ovarian) was 62 µM and the TGI (M14 melanoma) was 28.2 µM. It also gave a TGI (NCI-H226 lung) of 42.5 µM, a TGI (PC-3 prostate) of 22.7 µM and a TGI (MDA-MB-435) of 32.7 µM. For the same compound, the TGI (SR leukemia) was 14.9 µM, the TGI (UACC-62 melanoma) was 29.2 µM and the TGI (SK-MEL-2 melanoma) was 26.7 µM.
In the case of `CCOC(=O)/C=C/c1nc(C#N)c(N)o1`, the TGI (EKVX NSCLC) is reported as over 100 µM, the TGI (M14 melanoma) is reported as over 100 µM and the TGI (PC-3 prostate) is reported as over 100 µM. For the same compound, the TGI (MDA-MB-435) was over 100 µM, the TGI (MDA-MB-231 breast) was over 100 µM and the TGI (SR leukemia) was over 100 µM. It also gave a TGI (UACC-62 melanoma) of over 100 µM and a TGI (SK-MEL-2 melanoma) of over 100 µM.
`Cc1ccc(-c2cc(-c3ccco3)c(C#N)c(=S)[nH]2)cc1` gave a TGI (EKVX NSCLC) of over 100 µM, a TGI (NCI/ADR-RES ovarian) of over 100 µM and a TGI (M14 melanoma) of over 100 µM. It also gave a TGI (NCI-H226 lung) of over 100 µM, a TGI (PC-3 prostate) of over 100 µM and a TGI (MDA-MB-435) of 65.1 µM. It also gave a TGI (MDA-MB-231 breast) of over 100 µM, a TGI (SR leukemia) of over 100 µM and a TGI (UACC-62 melanoma) of over 100 µM.
